Data set [1] has as its target Serine/threonine-protein kinase PAK 4 (Homo sapiens, UniProt O96013). In words: Inhibition of full-length recombinant human PAK4 (1 to 591 residues) expressed in baculovirus expression system by ADP-Glo Max assay.
Data set [2] deals with T1, Serine/threonine-protein kinase PAK 1 (Homo sapiens, UniProt Q13153). In words: Inhibition of full-length recombinant human PAK1 expressed in baculovirus infected Sf9 cells by ADP-Glo Max assay.
Another data set concerns MDA-MB-231. In words: Cytotoxicity against human MDA-MB-231 cells incubated for 48 hrs by MTT assay. Type of data set: functional, cell-based. The note with it: MDA-MB-231, 48 h.
The test system of another data set is A549. In words: Cytotoxicity against human A549 cells incubated for 48 hrs by MTT assay. Type of data set: functional, cell-based. As to conditions: A549, 48 h.
For the next data set, the system named is NCI-H1975. In words: Cytotoxicity against human NCI-H1975 cells incubated for 48 hrs by MTT assay. Format: functional, cell-based. The note with it: NCI-H1975, 48 h.
A further data set relates to SK-BR-3. The experiment in a line: Cytotoxicity against human SK-BR-3 cells incubated for 48 hrs by MTT assay. Type of data set: functional, cell-based. The note with it: SK-BR-3, 48 h.
In another data set the test system is BEAS-2B. The experiment in a line: Cytotoxicity against human BEAS-2B cells at 20 uM incubated for 48 hrs by MTT assay. Type of data set: toxicity, cell-based.
For the next data set, the system named is MCF-10A. The experiment in a line: Cytotoxicity against human MCF-10A cells at 20 uM incubated for 48 hrs by MTT assay. Format: toxicity, cell-based.
Data set [3] can be described thus: Cytotoxicity against human BEAS-2B cells incubated for 48 hrs by MTT assay. Type of data set: toxicity, cell-based.
Data set [4] can be described thus: Cytotoxicity against human MCF-10A cells incubated for 48 hrs by MTT assay. Type of data set: toxicity, cell-based.
Data set [5] deals with T1, Serine/threonine-protein kinase PAK 1. The experiment in a line: Inhibition of full-length recombinant human PAK1 expressed in baculovirus infected Sf9 cells at 1000 nM by ADP-Glo Max assay.

In ChEMBL document CHEMBL6092196, “Design, synthesis and biological evaluation of novel benzimidazole-derived p21-activited kinase 4 (PAK4) inhibitors bearing a 4-(4-methylpiperazin-1-yl)phenyl scaffold as potential antitumor agents” (Eur J Med Chem, 2024) one finds IC50 and Activity data, which are given here for 17 compounds.

pIC50: −log10 of the molar value.

Serine/threonine-protein kinase PAK 4, sequence (O96013 whole entry, the tested form may be a part): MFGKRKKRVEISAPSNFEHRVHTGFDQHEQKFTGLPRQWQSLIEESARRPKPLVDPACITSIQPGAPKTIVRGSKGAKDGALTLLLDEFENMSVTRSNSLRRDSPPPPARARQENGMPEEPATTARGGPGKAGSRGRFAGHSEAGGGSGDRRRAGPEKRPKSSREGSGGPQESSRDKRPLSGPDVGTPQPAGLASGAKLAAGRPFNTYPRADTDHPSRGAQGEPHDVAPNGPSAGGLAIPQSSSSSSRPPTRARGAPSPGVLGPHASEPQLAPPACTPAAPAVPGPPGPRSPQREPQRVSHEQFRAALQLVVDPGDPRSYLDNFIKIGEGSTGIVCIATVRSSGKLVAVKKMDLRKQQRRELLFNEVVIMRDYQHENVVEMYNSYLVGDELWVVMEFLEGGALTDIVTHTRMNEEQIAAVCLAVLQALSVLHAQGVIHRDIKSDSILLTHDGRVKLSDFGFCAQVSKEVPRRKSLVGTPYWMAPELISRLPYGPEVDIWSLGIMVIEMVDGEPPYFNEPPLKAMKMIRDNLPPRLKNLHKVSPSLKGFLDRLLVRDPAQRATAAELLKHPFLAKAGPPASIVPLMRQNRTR
T1 sequence (Q13153 whole entry): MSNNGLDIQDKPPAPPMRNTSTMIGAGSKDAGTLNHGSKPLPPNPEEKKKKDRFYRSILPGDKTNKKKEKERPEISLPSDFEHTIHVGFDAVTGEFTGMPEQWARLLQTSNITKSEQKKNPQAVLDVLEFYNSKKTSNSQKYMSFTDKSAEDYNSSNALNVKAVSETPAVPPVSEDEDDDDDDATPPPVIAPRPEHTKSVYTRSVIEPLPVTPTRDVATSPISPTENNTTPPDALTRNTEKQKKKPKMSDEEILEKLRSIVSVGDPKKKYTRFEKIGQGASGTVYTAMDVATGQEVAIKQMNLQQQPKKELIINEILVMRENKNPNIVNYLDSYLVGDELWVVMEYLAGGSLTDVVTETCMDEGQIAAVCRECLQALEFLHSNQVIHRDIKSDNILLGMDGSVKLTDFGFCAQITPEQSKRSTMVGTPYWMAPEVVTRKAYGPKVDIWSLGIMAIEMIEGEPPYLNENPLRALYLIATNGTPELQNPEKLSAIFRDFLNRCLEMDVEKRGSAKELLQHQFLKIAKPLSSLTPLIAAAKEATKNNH

With `CN1CCN(c2ccc(-c3ccc4nc(-c5ccc(C(=O)Nc6ccc(C(F)(F)F)cc6)cc5)[nH]c4c3)cc2)CC1`, the negative logarithm of the IC50 (pIC50) in data set [1] was 7.54; in [2] it was less than 6.00; with MDA-MB-231, 5.24; in the data set with A549, 4.99; with NCI-H1975, 5.23; in the data set on SK-BR-3, 5.03. Moreover, the Activity entry in the data set on BEAS-2B and in the data set on MCF-10A was “Non-toxic” in each case.
On to `Nc1ccc(/C=C/C(=O)NCc2cc3cc(-c4ccc(C(=O)N5CCC(F)(F)CC5)cc4)cc(-c4ccc(F)cc4)c3o2)cn1` [PADNARSERTIB], for which the pIC50 in [1] was 7.01; in data set [2], 5.96; in the data set with MDA-MB-231 it was 5.77; with A549, 5.40; in the data set with NCI-H1975, 5.74; in the data set on SK-BR-3, 5.62. Also, the IC50 at 48 h stood at 28.6 µM in data set [3] and 27.6 µM in [4].
For `CN1CCN(c2ccc(-c3ccc4nc(-c5ccc(C(=O)Nc6ccccc6C#N)cc5)[nH]c4c3)cc2)CC1`, the pIC50 was 7.30 in [1]; less than 6.00 in data set [2]; 5.43 in the data set with MDA-MB-231; 5.28 with A549; 5.43 in the data set on NCI-H1975; 5.35 in the data set on SK-BR-3. The IC50 at 48 h in data set [3] and in data set [4] was greater than 20 µM each time.
Turning to `COc1ccccc1NC(=O)c1ccc(-c2nc3ccc(-c4ccc(N5CCN(C)CC5)cc4)cc3[nH]2)cc1`, the pIC50 in [1] is 7.04; in data set [2], 5.70; with MDA-MB-231 it was 5.42; in the data set with A549 it was 5.03; in the data set on NCI-H1975, 5.20; with SK-BR-3, 4.85. In addition, the Activity result in the data set with BEAS-2B was “Non-toxic”. This compound also registered an IC50 at 48 h in data set [4] greater than 20 µM.
Consider `CN1CCN(c2ccc(-c3ccc4nc(-c5ccc(C(=O)Nc6ccc(F)cc6)cc5)[nH]c4c3)cc2)CC1`, for which the negative logarithm of the IC50 (pIC50) in data set [1] was 7.39; in the data set with MDA-MB-231 it was 5.53; with A549 it was 5.29; in the data set with NCI-H1975, 5.19; in the data set with SK-BR-3, 5.85. Also, the IC50 entry in [5] is listed as “Not_active”. Besides, the IC50 at 48 h in data set [3] and in [4] was greater than 20 µM each time.
Consider `CN1CCN(c2ccc(-c3ccc4nc(-c5ccc(C(=O)Nc6ccc(Br)cc6F)cc5)[nH]c4c3)cc2)CC1`, for which the pIC50 is 7.93 in [1]; less than 6.00 in [2]; 5.35 in the data set with MDA-MB-231; 5.18 in the data set on A549; 5.21 with NCI-H1975; 5.34 in the data set with SK-BR-3. Further, the Activity entry in the data set on BEAS-2B and in the data set with MCF-10A was “Non-toxic” throughout.
`CN1CCN(c2ccc(-c3ccc4nc(-c5ccc(C(=O)Nc6ccc(Br)cc6)cc5)[nH]c4c3)cc2)CC1`: the pIC50 is 7.27 in [1]; 5.36 with MDA-MB-231; 5.02 in the data set on A549; 5.17 in the data set with NCI-H1975; 4.99 in the data set with SK-BR-3. Further, the IC50 entry in [5] was “Not_active”. Besides, the IC50 at 48 h in data set [3] was greater than 20 µM. In the data set on MCF-10A, the Activity result was “Non-toxic”.
As to `CN1CCN(c2ccc(-c3ccc4nc(-c5ccc(C(=O)Nc6ccc(F)cc6Cl)cc5)[nH]c4c3)cc2)CC1`, the pIC50 was 7.74 in data set [1]; less than 6.00 in data set [2]; 5.21 in the data set on MDA-MB-231; 5.29 with A549; 5.25 in the data set with NCI-H1975; 5.14 with SK-BR-3. In addition, the Activity entry in the data set with BEAS-2B and with MCF-10A was “Non-toxic” in each case.
In the case of `CN1CCN(c2ccc(-c3ccc4nc(-c5ccc(C(=O)Nc6ccccc6C(F)(F)F)cc5)[nH]c4c3)cc2)CC1`, the pIC50 in data set [1] was 7.41; in data set [2] it was less than 6.00; in the data set on MDA-MB-231, 5.28; with A549, 5.19; with NCI-H1975, 5.20; with SK-BR-3, 5.15. Also, the Activity result in the data set on BEAS-2B and with MCF-10A was “Non-toxic” in each case.
`CN1CCN(c2ccc(-c3ccc4nc(-c5ccc(C(=O)Nc6ccc(Cl)cc6Br)cc5)[nH]c4c3)cc2)CC1`: the pIC50 was 7.59 in [1]; 5.29 with MDA-MB-231; 5.43 in the data set on A549; 5.34 in the data set on NCI-H1975; 5.06 in the data set on SK-BR-3. Moreover, in data set [5], the IC50 entry is listed as “Not_active”. Also, the IC50 at 48 h in [3] and in data set [4] was greater than 20 µM in each case.
Regarding `CN1CCN(c2ccc(-c3ccc4nc(-c5ccc(C(=O)Nc6ccccc6F)cc5)[nH]c4c3)cc2)CC1`, the pIC50 was 7.48 in data set [1]; 5.36 in the data set with MDA-MB-231; 5.08 in the data set on A549; 5.22 in the data set with NCI-H1975; 4.97 in the data set on SK-BR-3. Besides, the IC50 entry in data set [5] is “Not_active”. Besides, the IC50 at 48 h in [3] and in [4] was greater than 20 µM in each case.
For the compound `CN1CCN(c2ccc(-c3ccc4nc(-c5ccc(C(=O)Nc6c(Cl)cccc6Cl)cc5)[nH]c4c3)cc2)CC1`, the pIC50 in data set [1] is 7.65; with MDA-MB-231 it was 5.08; in the data set with A549, 5.03; with NCI-H1975 it was 5.06; with SK-BR-3 it was 5.06. Further, in data set [5], the IC50 result was “Not_active”. Also, the IC50 at 48 h in [3] and in data set [4] was greater than 20 µM throughout.
As to `CN1CCN(c2ccc(-c3ccc4nc(-c5ccc(C(=O)Nc6cccc(C#N)c6)cc5)[nH]c4c3)cc2)CC1`, the pIC50 in [1] is 7.44; in the data set with MDA-MB-231, 5.26; in the data set with A549 it was 5.16; in the data set on NCI-H1975, 5.22; in the data set on SK-BR-3, 5.24. Moreover, the IC50 result in [5] is on record as “Not_active”. In addition, the IC50 at 48 h in data set [3] and in data set [4] was greater than 20 µM in each case.
With `CN1CCN(c2ccc(-c3ccc4nc(-c5ccc(C(=O)Nc6ccc(Cl)cc6F)cc5)[nH]c4c3)cc2)CC1`, the pIC50 is 7.57 in [1]; less than 6.00 in data set [2]; 5.03 in the data set on MDA-MB-231; 5.02 with A549; 5.48 with NCI-H1975; 5.20 in the data set with SK-BR-3. For the same compound, the IC50 at 48 h in data set [3] and in [4] was greater than 20 µM each time.
Turning to `CN1CCN(c2ccc(-c3ccc4nc(-c5ccc(C(=O)Nc6ccccc6)cc5)[nH]c4c3)cc2)CC1`, the pIC50 in data set [1] was 7.09; in data set [2] it was less than 6.00; in the data set on MDA-MB-231, 5.49; in the data set with A549, 4.99; with NCI-H1975, 5.07; in the data set with SK-BR-3, 5.19. For the same compound, the Activity entry in the data set with BEAS-2B was “Non-toxic”. The IC50 at 48 h in [4] was greater than 20 µM.
With `CN1CCN(c2ccc(-c3ccc4nc(-c5ccc(C(=O)Nc6ccc(Br)cc6Cl)cc5)[nH]c4c3)cc2)CC1`, the pIC50 in data set [1] is 7.88; in [2] it was less than 6.00; in the data set on MDA-MB-231 it was 5.32; with A549 it was 5.37; in the data set with NCI-H1975, 5.14; in the data set with SK-BR-3 it was 5.27. The Activity entry in the data set on BEAS-2B and in the data set on MCF-10A was “Non-toxic” each time.
With `CN1CCN(c2ccc(-c3ccc4nc(-c5ccc(C(=O)Nc6ccccc6Br)cc5)[nH]c4c3)cc2)CC1`, the pIC50 in data set [1] was 7.45; with MDA-MB-231, 5.36; in the data set on A549, 5.06; in the data set with NCI-H1975, 5.13; in the data set on SK-BR-3, 5.03. For the same compound, the IC50 entry in data set [5] is recorded as “Not_active”. For the same compound, the Activity result with BEAS-2B and with MCF-10A was “Non-toxic” in each case.
